Results taken from patent US11591341B2 (ALIGOS THERAPEUTICS, INC., priority 2019, dated 2023).

tested on: HBV; experiment: HBV-DNA Antiviral Assay Using HepG2.117 Cells (intracellular HBV DNA by qPCR); type: cell-based, hepatitis B virus (genotype D); conditions: Hepatitis B virus, HepG2.117
In short: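 HepG2.117 cells (genotype D HBV, Tet-off) were induced by doxycycline withdrawal and treated for 3 days with 9 concentrations in 4-fold dilution, 2% DMSO final. Intracellular HBV DNA was measured by qPCR against a standard curve, with ATPlite viability read in parallel. EC50, EC90 and CC50 came from fits against the DMSO control.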

Q: How did the EC50 turn out when C[C@@H](NC(=O)c1c2n(c(=O)n1-c1ccc(OC3COC3)cc1)CCN(C(=O)c1ccc(Br)c(Cl)c1)C2)c1ccccc1 (stereo in doubt) [Example 170, 7-(4-bromo-3-chloro-benzoyl)-2-[4-(oxetan-3-yloxy)phenyl]-3-oxo-N-[rac-(1R)-1-phenylethyl]-6,8-dihydro-5H-imidazo[1,5-a]pyrazine-1-carboxamide] was run?
A: 100 to 500 nM

Q: How did the EC50 turn out when COc1ccc(CNC(=O)c2c3n(c(=O)n2-c2ccc(OCC(F)(F)F)cc2)CCN(C(=O)c2ccc(Br)c(Cl)c2)C3)c(F)c1 [Example 244, 7-(4-bromo-3-chloro-benzoyl)-N-[(2-fluoro-4-methoxy-phenyl)methyl]-3-oxo-2-[4-(2,2,2-trifluoroethoxy)phenyl]-6,8-dihydro-5H-imidazo[1,5-a]pyrazine-1-carboxamide] was run?
A: 100 to 500 nM

Q: With O=C(NCc1ccc(OC(F)(F)F)cc1F)c1c2n(c(=O)n1-c1ccc(OCC(F)(F)F)cc1)CCN(C(=O)c1ccc(Br)c(Cl)c1)C2 [Example 284, 7-(4-bromo-3-chloro-benzoyl)-N-[[2-fluoro-4-(trifluoromethoxy)phenyl]methyl]-3-oxo-2-[4-(2,2,2-trifluoroethoxy)phenyl]-6,8-dihydro-5H-imidazo[1,5-a]pyrazine-1-carboxamide] as the compound, how does the EC50 read?
A: 500 to 5000 nM

Q: For C[C@@H](NC(=O)c1c2n(c(=O)n1-c1ccc(OCC(F)(F)F)cc1)CCN(C(=O)c1ccc(Br)c(Cl)c1)C2)c1cccc2nccnc12 (stereo in doubt) [Example 385, 7-(4-bromo-3-chloro-benzoyl)-3-oxo-N-[rac-(1R)-1-quinoxalin-5-ylethyl]-2-[4-(2,2,2-trifluoroethoxy)phenyl]-6,8-dihydro-5H-imidazo[1,5-a]pyrazine-1-carboxamide], which EC50 is on record?
A: 100 to 500 nM

Q: For CCS(=O)(=O)c1cccc(CNC(=O)c2c3n(c(=O)n2-c2ccc(OC(C)C)cc2)CCN(C(=O)c2ccc(Br)c(Cl)c2)C3)c1 [Example 186, 7-(4-bromo-3-chloro-benzoyl)-N-[(3-ethylsulfonylphenyl)methyl]-2-(4-isopropoxyphenyl)-3-oxo-6,8-dihydro-5H-imidazo[1,5-a]pyrazine-1-carboxamide], which EC50 is on record?
A: 500 to 5000 nM

Q: How did the EC50 turn out when NC(=O)c1ccc(-n2c(C(=O)NCc3ccccc3)c3n(c2=O)CCN(C(=O)c2ccc(Br)c(Cl)c2)C3)cc1 [Example 25, N-benzyl-7-(4-bromo-3-chloro-benozyl)-2-(4-carbamoylphenyl)-3-oxo-6,8-dihydro-5H-imidazo[1,5-a]pyrazine-1-carboxamide] was run?
A: > 5000 nM

Q: For COc1ccc(CNC(=O)c2c3n(c(=O)n2-c2ccc(OCC(F)(F)F)cc2)CCN(C(=O)c2ccc(Br)c(Cl)c2)C3)c(C)c1 [Example 246, 7-(4-bromo-3-chloro-benzoyl)-N-[(4-methoxy-2-methyl-phenyl)methyl]-3-oxo-2-[4-(2,2,2-trifluoroethoxy)phenyl]-6,8-dihydro-5H-imidazo[1,5-a]pyrazine-1-carboxamide], which EC50 is on record?
A: 100 to 500 nM

Q: How did the EC50 turn out when COc1ccc(-n2c(C(=O)NCc3ccc4occc4c3)c3n(c2=O)CCN(C(=O)c2ccc(Cl)c(Cl)c2)C3)cc1 [Example 66, N-(benzofuran-5-ylmethyl)-7-(3,4-dichlorobenzoyl)-2-(4-methoxyphenyl)-3-oxo-6,8-dihydro-5H-imidazo[1,5-a]pyrazine-1-carboxamide] was run?
A: 500 to 5000 nM

Q: For O=C(NCc1c(F)cccc1-n1cccn1)c1c2n(c(=O)n1-c1ccc(OC3CC3)cc1)CCN(C(=O)c1ccc(Br)c(Cl)c1)C2 [Example 435, 7-(4-bromo-3-chloro-benzoyl)-2-[4-(cyclopropoxy)phenyl]-N-[(2-fluoro-6-pyrazol-1-yl-phenyl)methyl]-3-oxo-6,8-dihydro-5H-imidazo[1,5-a]pyrazine-1-carboxamide], which EC50 is on record?
A: < 100 nM

Q: With COc1ccc(-n2c(C(=O)NC(C)c3ccc(F)cc3)c3n(c2=O)CCN(C(=O)c2ccc(Br)c(Cl)c2)C3)cc1 (stereo not shown) [Example 141, 7-(4-bromo-3-chloro-benzoyl)-N-[1-(4-fluorophenyl)ethyl]-2-(4-methoxyphenyl)-3-oxo-6,8-dihydro-5H-imidazo[1,5-a]pyrazine-1-carboxamide] as the compound, how does the EC50 read?
A: 100 to 500 nM

Q: Which EC50 does the source give for C[C@H](NC(=O)c1c2n(c(=O)n1-c1ccc(OC3CC3)cc1)CCN(C(=O)c1ccc(Br)c(Cl)c1)C2)c1ccc(OCC(N)=O)cc1-n1cccn1 (racemic) [Example 378, 7-(4-bromo-3-chloro-benzoyl)-2-[4-(cyclopropoxy)phenyl]-3-oxo-N-[rac-(1S)-1-[4-(2-amino-2-oxo-ethoxy)-2-pyrazol-1-yl-phenyl]ethyl]-6,8-dihydro-5H-imidazo[1,5-a]pyrazine-1-carboxamide] here?
A: > 5000 nM

Q: With CC(C)Oc1ccc(-n2c(C(=O)N[C@H](C)c3ccccc3)c3n(c2=O)CCN(C(=O)c2ccc(Cl)c(Cl)c2)C3)cc1 (stereo in doubt) [Example 130, 7-(3,4-dichlorobenzoyl)-2-(4-isopropoxyphenyl)-3-oxo-N-[rac-(1R)-1-phenylethyl]-6,8-dihydro-5H-imidazo[1,5-a]pyrazine-1-carboxamide] as the compound, how does the EC50 read?
A: 100 to 500 nM

Q: For NS(=O)(=O)c1ccc(-n2c(C(=O)NCc3ccccc3)c3n(c2=O)CCN(C(=O)c2ccc(Br)c(Cl)c2)C3)cc1 [Example 71, N-benzyl-7-(4-bromo-3-chloro-benzoyl)-3-oxo-2-(4-sulfamoylphenyl)-6,8-dihydro-5H-imidazo[1,5-a]pyrazine-1-carboxamide], which EC50 is on record?
A: > 5000 nM

Q: O=C(NCc1ccccc1)c1c2n(c(=O)n1-c1ccc(N3CCC3)cc1)CCN(C(=O)c1ccc(Br)c(Cl)c1)C2 [Example 390, 2-[4-(azetidin-1-yl)phenyl]-N-benzyl-7-(4-bromo-3-chloro-benzoyl)-3-oxo-6,8-dihydro-5H-imidazo[1,5-a]pyrazine-1-carboxamide] was tested. Which EC50 did it give?
A: 100 to 500 nM

Q: Which EC50 does the source give for COc1ccc(-n2c(C(=O)NCc3ccc4c(c3)OCO4)c3n(c2=O)CCN(C(=O)c2ccc(Br)c(Cl)c2)C3)cc1 [Example 182, N-(1,3-benzodioxol-5-ylmethyl)-7-(4-bromo-3-chloro-benzoyl)-2-(4-methoxyphenyl)-3-oxo-6,8-dihydro-5H-imidazo[1,5-a]pyrazine-1-carboxamide] here?
A: 100 to 500 nM

Q: With C[C@@H](NC(=O)c1c2n(c(=O)n1-c1ccc(OC3CC3)cc1)CCN(C(=O)c1ccc(Br)c(Cl)c1)C2)c1ccc(C#N)cc1F (racemic) [Example 341, 7-(4-bromo-3-chloro-benzoyl)-2-[4-(cyclopropoxy)phenyl]-3-oxo-N-[rac-(1R)-1-(4-cyano-2-fluoro-phenyl)ethyl]-6,8-dihydro-5H-imidazo[1,5-a]pyrazine-1-carboxamide] as the compound, how does the EC50 read?
A: 500 to 5000 nM

Q: For C[C@@H](NC(=O)c1c2n(c(=O)n1-c1ccc(-n3cccn3)cc1)CCN(C(=O)c1ccc(Br)c(Cl)c1)C2)c1ccccc1F (stereo in doubt) [Example 405, 7-(4-bromo-3-chloro-benzoyl)-3-oxo-2-(4-pyrazol-1-ylphenyl)-N-[rac-(1R)-1-(2-fluorophenyl)ethyl]-6,8-dihydro-5H-imidazo[1,5-a]pyrazine-1-carboxamide], which EC50 is on record?
A: < 100 nM

Q: How did the EC50 turn out when CC(C)CN1CCCn2c(c3n(c2=O)CCN(C(=O)c2ccc(Br)c(Cl)c2)C3)C1=O [Example 134, 4-(4-bromo-3-chloro-benzoyl)-13-isobutyl-4,7,9,13-tetrazatricyclo[7.5.0.0^2,7]tetradec-1-ene-8.14-dione] was run?
A: > 5000 nM

Q: Which EC50 does the source give for COc1ccc(-n2c(C(=O)N[C@H]3CCc4cc(OC)ccc43)c3n(c2=O)CCN(C(=O)c2ccc(Br)c(Cl)c2)C3)cc1 (stereo in doubt) [Example 100, 7-(4-bromo-3-chloro-benzoyl)-2-(4-methoxyphenyl)-3-oxo-N-[rac-(1S)-5-methoxyindazin-1-yl]-6,8-dihydro-5H-imidazo[1,5-a]pyrazine-1-carboxamide] here?
A: 100 to 500 nM

Q: Which EC50 does the source give for CC(C)Oc1ccc(-n2c(C(=O)NCc3ccccc3)c3n(c2=O)CCN(C(=O)c2cc4c(Cl)cccc4s2)C3)cc1 [Example 224, N-benzyl-7-(4-chlorobenzothiophene-2-carbonyl)-2-(4-isopropoxyphenyl)-3-oxo-6,8-dihydro-5H-imidazo[1,5-a]pyrazine-1-carboxamide] here?
A: > 5000 nM

Q: How did the EC50 turn out when C[C@@H]1Cn2c(c(C(=O)NCc3ccccc3-n3cc(F)cn3)n(-c3ccc(OC4CC4)cc3)c2=O)CN1C(=O)c1ccc(Br)c(Cl)c1 (racemic) [Example 441, rac-(6R)-7-(4-bromo-3-chloro-benzoyl)-2-[4-(cyclopropxy)phenyl]-N-[[2-(4-fluoropyrazol-1-yl)phenyl]methyl]-6-methyl-3-oxo-6,8-dihydro-5H-imidazo[1,5-a]pyrazine-1-carboxamide] was run?
A: 100 to 500 nM

Q: How did the EC50 turn out when COc1ccc(-n2c(C(=O)NCc3ccc(F)cc3)c3n(c2=O)CCN(C(=O)c2ccc(Br)c(Cl)c2)C3)cc1 [Example 60, 7-(4-bromo-3-chloro-benzoyl)-N-[(4-fluorophenyl)methyl]-2-(4-methoxyphenyl)-3-oxo-6,8-dihydro-5H-imidazo[1,5-a]pyrazine-1-carboxamide] was run?
A: 100 to 500 nM

Q: With COc1ccc(-n2c(C(=O)NCc3ccc4ncccc4c3)c3n(c2=O)CCN(C(=O)c2ccc(Cl)c(Cl)c2)C3)cc1 [Example 92, 7-(3,4-dichlorobenzoyl)-2-(4-methoxyphenyl)-3-oxo-N-(6-quinolylmethyl)-6,8-dihydro-5H-imidazo[1,5-a]pyrazine-1-carboxamide] as the compound, how does the EC50 read?
A: 500 to 5000 nM

Q: For C[C@H]1Cn2c(c(C(=O)NCc3ccccc3-n3cccn3)n(-c3ccc(OC4CC4)cc3)c2=O)CN1C(=O)c1ccc(Br)c(Cl)c1 (stereo in doubt) [Example 438, rac-(6S)-7-(4-bromo-3-chloro-benzoyl)-2-[4-(cyclopropoxy)phenyl]-6-methyl-3-oxo-N-[(2-pyrazol-1-ylphenyl)methyl]-6,8-dihydro-5H-imidazo[1,5-a]pyrazine-1-carboxamide], which EC50 is on record?
A: < 100 nM

Q: How did the EC50 turn out when COc1ccc([C@H](C)NC(=O)c2c3n(c(=O)n2-c2ccc(OC(C)C)cc2)CCN(C(=O)c2ccc(Br)c(Cl)c2)C3)c(F)c1 (stereo in doubt) [Example 235, 7-(4-bromo-3-chloro-benzoyl)-2-(4-isopropoxyphenyl)-3-oxo-N-[rac-(1S)-1-(2-fluoro-4-methoxy-phenyl)ethyl]-6,8-dihydro-5H-imidazo[1,5-a]pyrazine-1-carboxamide] was run?
A: 100 to 500 nM
